According to PubChem BioAssay AID256 (DTP/NCI, 2004):
Values joined by “and” are separate entries in the source; they are usually repeats but may differ in a detail not shown here. Equal entries are not always repeated. Inconclusive results and toxic doses are left out. Rule for the calls: active = survival T/C of 150% or more; inactive = T/C below 125% in these data.

Tested on: CD2F1 mice, L1210 leukemia ip, survival T/C
Experiment: NCI In Vivo Anticancer Drug Screen. Data for tumor model L1210 Leukemia (intraperitoneal) in CD2F1 (CDF1) mice
Details: higher = longer survival
Summary of the method: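 Each value reflects a quotient of treated over vehicle control outcomes in mice with a transplanted tumor.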

[1] = endpoint: mean survival time, dose: 12.5 mg/kg/injection, schedule: Q01DX009 (ip), vehicle: saline with Tween-80
[2] = endpoint: mean survival time, dose: 25.0 mg/kg/injection, schedule: Q01DX009 (ip), vehicle: saline with Tween-80
[3] = endpoint: mean survival time, dose: 50.0 mg/kg/injection, schedule: Q01DX009 (ip), vehicle: saline with Tween-80
[4] = endpoint: mean survival time, dose: 100.0 mg/kg/injection, schedule: Q01DX009 (ip), vehicle: saline with Tween-80
[5] = endpoint: mean survival time, dose: 200.0 mg/kg/injection, schedule: Q01DX009 (ip), vehicle: saline with Tween-80
[6] = endpoint: mean survival time, dose: 400.0 mg/kg/injection, schedule: Q01DX009 (ip), vehicle: saline with Tween-80

Measured: T/C

C=CCOc1cc2c(cc1C(C)c1ccc(OC)cc1)OCO2 (stereo not drawn)
inactive: endpoint: median survival time, dose: 25.0 mg/kg/injection, schedule: Q01DX009 (ip), vehicle: Klucel (hydroxypropylcellulose) (HPC) 100 % of control and 103 % of control | endpoint: median survival time, dose: 50.0 mg/kg/injection, schedule: Q01DX005 (ip), vehicle: Klucel (hydroxypropylcellulose) (HPC) 94 % of control | endpoint: median survival time, dose: 50.0 mg/kg/injection, schedule: Q01DX009 (ip), vehicle: Klucel (hydroxypropylcellulose) (HPC) 120 % of control and 101 % of control and 104 % of control | endpoint: median survival time, dose: 50.0 mg/kg/injection, schedule: Q01DX009 (ip), vehicle: saline with Tween-80 105 % of control | endpoint: median survival time, dose: 100.0 mg/kg/injection, schedule: Q01DX005 (ip), vehicle: Klucel (hydroxypropylcellulose) (HPC) 103 % of control | endpoint: median survival time, dose: 100.0 mg/kg/injection, schedule: Q01DX009 (ip), vehicle: Klucel (hydroxypropylcellulose) (HPC) 105 % of control and 110 % of control | endpoint: median survival time, dose: 100.0 mg/kg/injection, schedule: Q01DX009 (ip), vehicle: saline with Tween-80 107 % of control | endpoint: median survival time, dose: 200.0 mg/kg/injection, schedule: Q01DX005 (ip), vehicle: Klucel (hydroxypropylcellulose) (HPC) 108 % of control | endpoint: median survival time, dose: 400.0 mg/kg/injection, schedule: Q01DX005 (ip), vehicle: Klucel (hydroxypropylcellulose) (HPC) 118 % of control | endpoint: median survival time, dose: 400.0 mg/kg/injection, schedule: Q01DX009 (ip), vehicle: saline with Tween-80 124 % of control | endpoint: median survival time, dose: 800.0 mg/kg/injection, schedule: Q01DX005 (ip), vehicle: Klucel (hydroxypropylcellulose) (HPC) 95 % of control | endpoint: median survival time, dose: 800.0 mg/kg/injection, schedule: Q01DX009 (ip), vehicle: saline with Tween-80 98 % of control

CCCCCCCC(=O)NC1CCC(C(C)(C)C)CC1 (stereo not drawn)
inactive: endpoint: mean survival time, dose: 100.0 mg/kg/injection, schedule: Q04DX003 (ip), vehicle: other 93 % of control | endpoint: mean survival time, dose: 200.0 mg/kg/injection, schedule: Q04DX003 (ip), vehicle: other 94 % of control | endpoint: mean survival time, dose: 400.0 mg/kg/injection, schedule: Q04DX003 (ip), vehicle: other 89 % of control

C1C[N-]CC[N-]1.[Cl][Pt+2][Cl]
inactive: endpoint: mean survival time, dose: 7.8 mg/kg/injection, schedule: Q04DX003 (ip), vehicle: saline with Tween-80 97 % of control | endpoint: mean survival time, dose: 62.5 mg/kg/injection, schedule: Q04DX003 (ip), vehicle: saline with Tween-80 90 % of control | endpoint: mean survival time, dose: 125.0 mg/kg/injection, schedule: Q04DX003 (ip), vehicle: saline with Tween-80 94 % of control

O=NC1C(=O)C2CC1CC2C(=O)OC(=O)C1CC2CC1C(=O)C2N=O (stereo not drawn)
inactive: endpoint: mean survival time, dose: 75.0 mg/kg/injection, schedule: Q01DX001 (ip), vehicle: other 108 % of control | endpoint: mean survival time, dose: 150.0 mg/kg/injection, schedule: Q01DX001 (ip), vehicle: other 108 % of control

CC(=O)NCc1cccc([N+](=O)[O-])c1
inactive: endpoint: mean survival time, dose: 25.0 mg/kg/injection, schedule: Q01DX005 (ip), vehicle: suspension in saline 97 % of control | endpoint: mean survival time, dose: 50.0 mg/kg/injection, schedule: Q01DX005 (ip), vehicle: suspension in saline 106 % of control | endpoint: mean survival time, dose: 100.0 mg/kg/injection, schedule: Q01DX005 (ip), vehicle: suspension in saline 105 % of control | endpoint: mean survival time, dose: 200.0 mg/kg/injection, schedule: Q01DX005 (ip), vehicle: suspension in saline 95 % of control | endpoint: mean survival time, dose: 400.0 mg/kg/injection, schedule: Q01DX005 (ip), vehicle: suspension in saline 95 % of control

Cc1oc2c(C)c3oc(=O)cc(C)c3cc2c1CCl
inactive: [1] 101 % of control and 105 % of control | [2] 96 % of control and 105 % of control | [3] 96 % of control and 108 % of control | [4] 109 % of control | [5] 91 % of control

CC(C)(S)CNCCSC(=O)c1ccccc1
inactive: [4] 103 % of control | [5] 100 % of control | [6] 94 % of control

Nc1ncnc2c1nc(Cl)n2C1OC2COP(=O)(O)OC2C1O (stereo not drawn)
inactive: endpoint: mean survival time, dose: 12.5 mg/kg/injection, schedule: Q01DX005 (ip), vehicle: water 96 % of control | endpoint: mean survival time, dose: 25.0 mg/kg/injection, schedule: Q01DX005 (ip), vehicle: water 100 % of control | endpoint: mean survival time, dose: 50.0 mg/kg/injection, schedule: Q01DX005 (ip), vehicle: water 100 % of control

COC1/C=C\C=C(/C)C(=O)NC2=CC(=O)C=C(C2=O)C(OC)C(C)CC(OC)C(OC)C(C)/C=C(/C)C1OC(N)=O (stereo not drawn)
inactive: endpoint: mean survival time, dose: 0.18 mg/kg/injection, schedule: Q01DX009 (ip), vehicle: Klucel (hydroxypropylcellulose) (HPC) 108 % of control | endpoint: mean survival time, dose: 0.37 mg/kg/injection, schedule: Q01DX009 (ip), vehicle: Klucel (hydroxypropylcellulose) (HPC) 107 % of control | endpoint: mean survival time, dose: 0.75 mg/kg/injection, schedule: Q01DX009 (ip), vehicle: Klucel (hydroxypropylcellulose) (HPC) 120 % of control and 98 % of control | endpoint: mean survival time, dose: 1.5 mg/kg/injection, schedule: Q01DX009 (ip), vehicle: Klucel (hydroxypropylcellulose) (HPC) 93 % of control and 103 % of control | endpoint: mean survival time, dose: 3.0 mg/kg/injection, schedule: Q01DX009 (ip), vehicle: Klucel (hydroxypropylcellulose) (HPC) 95 % of control and 105 % of control

CCOC(=O)C1C(=O)NC(=O)N1Cc1ccccc1 (stereo not drawn)
inactive: endpoint: mean survival time, dose: 12.5 mg/kg/injection, schedule: Q01DX009 (ip), vehicle: other 100 % of control | endpoint: mean survival time, dose: 25.0 mg/kg/injection, schedule: Q01DX009 (ip), vehicle: other 104 % of control | endpoint: mean survival time, dose: 50.0 mg/kg/injection, schedule: Q01DX009 (ip), vehicle: other 100 % of control | endpoint: mean survival time, dose: 100.0 mg/kg/injection, schedule: Q01DX009 (ip), vehicle: other 97 % of control | endpoint: mean survival time, dose: 200.0 mg/kg/injection, schedule: Q01DX009 (ip), vehicle: other 100 % of control

N#C/C(=C\c1cc(Cl)ccc1O)C1CCC([N+](=O)[O-])CC1 (stereo not drawn)
inactive: [4] 86 % of control | [5] 93 % of control | [6] 91 % of control

O=[N+]([O-])c1ccc(SSC(Cl)(Cl)Cl)cc1
inactive: endpoint: mean survival time, dose: 6.25 mg/kg/injection, schedule: Q01DX009 (ip), vehicle: saline with Tween-80 101 % of control | [1] 101 % of control | [2] 101 % of control | [3] 100 % of control

C(N=Nc1ccccc1)=C(c1ccccc1)c1ccccc1
inactive: endpoint: mean survival time, dose: 100.0 mg/kg/injection, schedule: Q04DX002 (ip), vehicle: other 107 % of control | endpoint: mean survival time, dose: 200.0 mg/kg/injection, schedule: Q04DX002 (ip), vehicle: other 103 % of control | endpoint: mean survival time, dose: 400.0 mg/kg/injection, schedule: Q04DX002 (ip), vehicle: other 103 % of control

CCN(CC)CCCC(C)Nc1ncnc(N)c1[N+](=O)[O-] (stereo not drawn)
inactive: endpoint: mean survival time, dose: 25.0 mg/kg/injection, schedule: Q01DX009 (ip), vehicle: saline 103 % of control | endpoint: mean survival time, dose: 25.0 mg/kg/injection, schedule: Q04DX003 (ip), vehicle: saline 106 % of control | endpoint: mean survival time, dose: 50.0 mg/kg/injection, schedule: Q01DX009 (ip), vehicle: saline 92 % of control | endpoint: mean survival time, dose: 50.0 mg/kg/injection, schedule: Q04DX003 (ip), vehicle: saline 111 % of control | endpoint: mean survival time, dose: 100.0 mg/kg/injection, schedule: Q01DX009 (ip), vehicle: saline 95 % of control | endpoint: mean survival time, dose: 100.0 mg/kg/injection, schedule: Q04DX003 (ip), vehicle: saline 104 % of control

COc1ccc(NC(=O)Nc2cccc(O)c2)c(Cl)c1
inactive: endpoint: mean survival time, dose: 50.0 mg/kg/injection, schedule: Q01DX009 (ip), vehicle: Klucel (hydroxypropylcellulose) (HPC) 95 % of control | endpoint: mean survival time, dose: 100.0 mg/kg/injection, schedule: Q01DX009 (ip), vehicle: Klucel (hydroxypropylcellulose) (HPC) 98 % of control | endpoint: mean survival time, dose: 100.0 mg/kg/injection, schedule: Q04DX003 (ip), vehicle: Klucel (hydroxypropylcellulose) (HPC) 102 % of control | endpoint: mean survival time, dose: 200.0 mg/kg/injection, schedule: Q01DX009 (ip), vehicle: Klucel (hydroxypropylcellulose) (HPC) 95 % of control | endpoint: mean survival time, dose: 200.0 mg/kg/injection, schedule: Q04DX003 (ip), vehicle: Klucel (hydroxypropylcellulose) (HPC) 112 % of control | endpoint: mean survival time, dose: 400.0 mg/kg/injection, schedule: Q04DX003 (ip), vehicle: Klucel (hydroxypropylcellulose) (HPC) 104 % of control

CNc1nc(-c2ccncc2)nc(N(C)C)n1
inactive: endpoint: mean survival time, dose: 100.0 mg/kg/injection, schedule: Q04DX002 (ip), vehicle: saline with Tween-80 96 % of control | endpoint: mean survival time, dose: 200.0 mg/kg/injection, schedule: Q04DX002 (ip), vehicle: saline with Tween-80 88 % of control

O=C(OCC1CC=CC1)C1CC=CC1
inactive: [1] 104 % of control | [2] 95 % of control | [3] 98 % of control

COc1cc(/C=N/Nc2ccc([N+](=O)[O-])cc2)cc(OC)c1OC
inactive: [4] 97 % of control | [5] 94 % of control | [6] 98 % of control

COc1nc(OC)c2ccn(C3CC(O)C(CO)O3)c2n1 (stereo not drawn)
inactive: endpoint: median survival time, dose: 12.5 mg/kg/injection, schedule: Q01DX005 (ip), vehicle: saline 106 % of control | endpoint: median survival time, dose: 25.0 mg/kg/injection, schedule: Q01DX005 (ip), vehicle: saline 103 % of control | endpoint: median survival time, dose: 50.0 mg/kg/injection, schedule: Q01DX005 (ip), vehicle: saline 102 % of control | endpoint: median survival time, dose: 100.0 mg/kg/injection, schedule: Q01DX005 (ip), vehicle: saline 93 % of control | endpoint: median survival time, dose: 200.0 mg/kg/injection, schedule: Q01DX005 (ip), vehicle: saline 98 % of control

CC(=O)OC1CCCC2=CC(=O)CCC21C (stereo not drawn)
inactive: endpoint: mean survival time, dose: 100.0 mg/kg/injection, schedule: Q04DX003 (ip), vehicle: saline with Tween-80 96 % of control | endpoint: mean survival time, dose: 200.0 mg/kg/injection, schedule: Q04DX003 (ip), vehicle: saline with Tween-80 92 % of control
